Literature values in US8580852B2, “2-oxamide inhibitors of phospholipase A2 activity and cellular arachidonate release based on dipeptides and pseudopeptides” (The Regents of the University of California, priority 2009, dated 2013).
Marks after values point to notes of the source that are not given here.

How the values were obtained:
GIVA cPLA2 = molecular target: T1, GIVA cPLA2 (Homo sapiens, UniProt P47712); conditions: reference inhibitors; data taken from ref 15; cited from earlier work
T1 sequence (P47712 1-749): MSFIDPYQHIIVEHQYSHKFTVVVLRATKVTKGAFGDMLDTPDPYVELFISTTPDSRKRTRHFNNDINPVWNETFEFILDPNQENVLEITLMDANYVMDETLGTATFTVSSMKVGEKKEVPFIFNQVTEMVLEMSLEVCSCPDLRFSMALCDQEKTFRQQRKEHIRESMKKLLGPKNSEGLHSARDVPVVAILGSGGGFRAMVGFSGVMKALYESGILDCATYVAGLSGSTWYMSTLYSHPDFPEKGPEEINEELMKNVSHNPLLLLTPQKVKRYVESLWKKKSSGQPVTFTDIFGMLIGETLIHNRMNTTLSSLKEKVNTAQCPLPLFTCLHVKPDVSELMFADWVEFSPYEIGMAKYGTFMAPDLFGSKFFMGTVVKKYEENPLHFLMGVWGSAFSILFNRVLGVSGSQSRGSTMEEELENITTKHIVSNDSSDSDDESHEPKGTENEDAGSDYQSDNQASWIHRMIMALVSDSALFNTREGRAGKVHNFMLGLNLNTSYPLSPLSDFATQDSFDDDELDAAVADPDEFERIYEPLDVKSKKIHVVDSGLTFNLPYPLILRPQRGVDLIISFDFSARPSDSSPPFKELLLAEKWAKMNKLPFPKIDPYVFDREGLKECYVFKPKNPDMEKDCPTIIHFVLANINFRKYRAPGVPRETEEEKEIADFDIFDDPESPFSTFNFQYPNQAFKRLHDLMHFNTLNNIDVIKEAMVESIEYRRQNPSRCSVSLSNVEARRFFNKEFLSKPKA

GVIA iPLA2 = molecular target: T2, GVIA iPLA2 (Homo sapiens, UniProt O60733); conditions: reference inhibitors; data taken from ref 15; cited from earlier work
T2 sequence (O60733 1-806): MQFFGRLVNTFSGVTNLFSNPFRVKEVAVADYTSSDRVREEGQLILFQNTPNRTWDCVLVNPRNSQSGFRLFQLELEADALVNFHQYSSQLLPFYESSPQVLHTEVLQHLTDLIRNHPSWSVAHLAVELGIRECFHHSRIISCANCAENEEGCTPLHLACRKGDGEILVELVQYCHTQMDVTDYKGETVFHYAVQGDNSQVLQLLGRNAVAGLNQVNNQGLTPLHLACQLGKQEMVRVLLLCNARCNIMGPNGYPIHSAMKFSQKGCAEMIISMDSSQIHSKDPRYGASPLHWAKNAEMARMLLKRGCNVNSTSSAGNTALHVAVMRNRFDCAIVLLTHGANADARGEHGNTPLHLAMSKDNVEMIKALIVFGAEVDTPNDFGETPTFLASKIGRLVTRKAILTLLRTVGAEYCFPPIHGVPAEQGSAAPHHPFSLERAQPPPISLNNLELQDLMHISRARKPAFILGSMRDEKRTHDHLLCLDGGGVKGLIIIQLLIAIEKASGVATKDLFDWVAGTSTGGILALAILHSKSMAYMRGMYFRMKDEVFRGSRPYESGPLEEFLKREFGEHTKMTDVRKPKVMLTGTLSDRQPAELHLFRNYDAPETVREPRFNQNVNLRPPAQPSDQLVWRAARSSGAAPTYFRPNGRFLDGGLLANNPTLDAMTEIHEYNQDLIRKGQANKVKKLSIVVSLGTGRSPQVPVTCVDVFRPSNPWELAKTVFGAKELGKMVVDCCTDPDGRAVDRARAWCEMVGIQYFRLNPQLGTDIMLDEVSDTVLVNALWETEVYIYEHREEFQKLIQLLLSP

**Q.** With `CCCCCCCCCCCCCCC(=O)C(=O)NCCCC(=O)OCC` [AX048, reference compound] as the molecule, how does the “GIVA cPLA2 X1(50)” value (GIVA cPLA2) read?
**A.** The value was 0.022 ± 0.009^b mole fraction.

**Q.** What about the “GVIA iPLA2 X1(50)” value (GVIA iPLA2) of the same molecule?
**A.** The value was 0.027 ± 0.009^b mole fraction.
